Source: US12319655B2, “RAF kinase inhibitors and methods of use thereof” (Deciphera Pharmaceuticals, LLC, priority 2021, dated 2025)

Columns and labels:
Miapaca-2 cells = test: MiaPaca-2 Combination Cell proliferation Assay (1) with cobimetinib; format: cell-based; conditions: MiaPaca-2 cell proliferation, read-out: MiaPaca-2 Combo (1) IC50
WM3629 cells = test: WM3629 Cell Proliferation Assay (1); format: cell-based
Method: WM3629 Cell Proliferation Assay (1)
WM3629 cells (#WM3629-01-0001) are obtained from Rockland Immunochemicals Inc (Gilbertsville, PA). Briefly, cells were grown in MCDB 153 medium (Sigma, #M7403, St. Louis, MO) supplemented with 20% Leibovitz's L-15 (ThermoFisher #11415-064, Waltham, MA), 2% heat inactivated fetal bovine serum (ThermoFisher, #A3840001, Waltham, MA), 5 μg/mL Insulin (Bovine Pancreas) (Sigma, #10516, St. Louis, MO), 1.68 mM Calcium Chloride (Sigma, #C-34006, St. Louis, MO) and 1% Penicillin/Streptomycin/L-Glutamine (ThermoFisher #10378016, Waltham, MA) at 37° C., 5% CO2, and 95% humidity. Cells are expanded until reaching 70-95% confluency at which point they are subcultured or harvested for assay use. A serial dilution of test compound is dispensed into a 96-well black clear bottom plate in triplicate. Four thousand five hundred cells are added per well in 200 μL complete growth medium in the 96-well plate. Plates are incubated for 67-72 hours at 37° C., 5% CO2, and 95% humidity. At the end of the incubation, 40 μL of a 440 μM solution of resazurin (Sigma, #199303, St. Louis, MO) in PBS is added to each well of the plate and plates are incubated for an additional 6-7 hours at 37° C., 5% CO2, and 95% humidity. Plates are read on a Synergy2 or equivalent reader (Biotek, Winooski VT) using an excitation of 540 nm and an emission of 600 nm. Data is analyzed using Prism software (GraphPad, San Diego, CA) to calculate IC50 values.

SMILES | IC50 (Miapaca-2 cells) | IC50 (WM3629 cells)
Cc1ccc(NC(=O)c2ccnc(C(C)(C)C#N)c2)cc1-c1ccnc(-c2ccnc3c2CC(=O)N3)c1 [Example 23] | 100 to 500 nM | 
CNC(=O)c1cc(-c2cc(-c3cc(NC(=O)c4ccnc(C(F)(F)F)c4)ccc3C)cc(C3CC3)n2)ccn1 [Example 27] | 500 to 1000 nM | 
COC(=O)Nc1cc(-c2nccc(-c3cc(NC(=O)c4ccnc(C(C)(C)C#N)c4)c(F)cc3C)n2)ccn1 [Example 303] | ≤ 100 nM | ≤ 100 nM
COC(=O)Nc1cc(-c2nccc(-c3cc(NC(=O)c4ccnc(C(C)(C)F)c4)c(F)cc3C)n2)ccn1 [Example 304] | ≤ 100 nM | ≤ 100 nM
COC(=O)Nc1cc(-c2cc(-c3cc(NC(=O)c4ccnc(C(C)(C)C#N)c4)c(F)cc3C)ccn2)ccn1 [Example 308] | ≤ 100 nM | ≤ 100 nM
Cc1ccc(NC(=O)c2ccnc(C(C)(C)F)c2)cc1-c1cc(-c2ccnc(NC(=O)C3CC3)c2)cnn1 [Example 315] | ≤ 100 nM | ≤ 100 nM
COC(C)(C)c1cc(C(=O)Nc2ccc(C)c(-c3cc(-c4ccnc(NC(=O)C5CC5)c4)cnn3)c2)ccn1 [Example 319] | ≤ 100 nM | 
Cc1ccc(NC(=O)c2cnn(C(C)(C)C)c2)cc1-c1cc(-c2ccnc(NC(=O)C3CC3)c2)cnn1 [Example 321] |  | ≤ 100 nM
CNC(=O)c1cc(-c2cnnc(-c3cc(NC(=O)c4ccnc(C(C)(C)F)c4)ccc3C)c2)ccn1 [Example 325] |  | ≤ 100 nM
CNC(=O)c1cc(-c2cnnc(-c3cc(NC(=O)c4ccnc(C(F)F)c4)ccc3C)c2)ccn1 [Example 327] |  | 1000 to 10000 nM
CNC(=O)c1cc(-c2cc(-c3cc(NC(=O)COCC4CC4)ccc3C)ccn2)ccn1 [Example 358] | 1000 to 10000 nM | 

Continued, in another order:

IC50 (Miapaca-2 cells) | SMILES | IC50 (WM3629 cells)
≤ 100 nM | CC(=O)Nc1cc(-c2nccc(-c3cc(NC(=O)c4ccnc(C(F)(F)F)c4)ccc3C)n2)ccn1 [Example 24] | 
≤ 100 nM | CNC(=O)c1cc(-c2nccc(-c3cc(NC(=O)c4ccnc(C(F)(F)F)c4)ccc3C)n2)ccn1 [Example 25] | 
≤ 100 nM | CC(=O)Nc1cc(-c2cc(-c3cc(C(=O)Nc4ccnc(C(F)(F)F)c4)ccc3C)ccn2)ccn1 [Example 26] | 
≤ 100 nM | CC(=O)Nc1cc(-c2cccc(-c3cc(NC(=O)c4ccnc(C(F)(F)F)c4)ccc3C)c2)ccn1 [Example 28] | 
≤ 100 nM | CC(=O)Nc1cc(-c2cncc(-c3cc(NC(=O)c4ccnc(C(F)(F)F)c4)ccc3C)n2)ccn1 [Example 29] | 
≤ 100 nM | CC(=O)Nc1cc(-c2cccc(-c3cc(NC(=O)c4ccnc(C(F)(F)F)c4)ccc3C)c2)ncn1 [Example 30] | 
≤ 100 nM | COC(=O)Nc1cc(-c2cccc(-c3cc(NC(=O)c4ccnc(C(C)(C)C#N)c4)cnc3C)c2)ccn1 [Example 282] | 
≤ 100 nM | COC(=O)Nc1cc(-c2cc(-c3cc(NC(=O)c4ccnc(C(C)(C)C#N)c4)cnc3C)ccn2)ccn1 [Example 297] | 
≤ 100 nM | COC(=O)Nc1cc(-c2cc(-c3cc(NC(=O)c4ccnc(C(C)(C)F)c4)c(F)cc3C)ccn2)ccn1 [Example 302] | ≤ 100 nM
